Patent publication US20220259235A1, “EGFR Inhibitor, Composition, and Preparation Method Therefor” (BETTA PHARMACEUTICALS CO., LTD, priority 2019, published 2022)

Legend:
[1] = Liver microsomal clearance test, rat; assay type: in vitro ADME; conditions: Rat liver microsomes, 0.5 mg/mL, NADPH
Method: Test 3 Liver Microsomal Clearance Test
1. Prepare 0.5 mg/mL liver microsome diluent containing K-butter and MgCl2:
2.1 Take 356 μL of the liver microsome diluent prepared above and add it to the preset wells of the incubation plate, the number of multiple wells n=1, mark it as the incubation plate.
2.2 Take 4 μL of the positive control compound Verapamil (50 μM) and the working solution of the test compound (200 μM) into the above incubation plate containing 356 μL of liver microsome diluent, and mix well (The dilution solvent from the stock solution to the working solution is a mixed solvent of acetonitrile: methanol: water=1:1:2, and the final concentration of DMSO is ≤0.5%),
2.3 Place the incubation plate in a 37° C. thermostatic oscillator (at shaking speed of 100 rpm) for pre-incubation with 10 min.
2.4 Add 40 μL of 10 mM NADPH (add 40 μL of K-buffer to the wells without NADPH) to each reaction well to start the reaction and start timing.
3. Sample collection and treatment:
3.1 After adding NADPH to start the reaction, immediately take out 50 μL of the sample and add it to the precipitation plate pre-added with 400 μL of stop solution, and shake on an oscillator at 600 rpm for 5 min at room temperature as a 0 min sample.
3.2 At the predetermined time points of 5 min, 15 min and 45 min, take out 50 μL of sample from the incubation plate and add it to the precipitation plate. The subsequent steps were the same as the treatment of 0 min sample. 3.3 After balancing, centrifuge above precipitation plate at 3200 rpm for 10 min at 4° C.
3.4 Take 50 μL of the supernatant after centrifugation and add it to pre-added 20% acetonitrile water at appropriate proportion, shake on an oscillator at 600 rpm for 2 min at room temperature, mix well, and put it into the LC-MS/MS sampler for sample injection.
Analysis of Experimental Data
1. […]

Ba/F3-Δ19del/T790M/C797S = Ba/F3-Δ19del/T790M/C797S (Homo sapiens, UniProt P00533, T790M/C797S, cells depend on it, form not given); test: Ba/F3-Δ19del/T790M/C797S cell proliferation assay (CellTiter Glo, 72 h); assay type: cell-based; conditions: CTG, numeric values, read-out: BaF3 Δ19del/T790M/C797S IC50
Ba/F3-Δ19del/T790M/C797S, sequence (P00533 with tags, fused parts or gaps DEL746-750/T790M/C797S, form open): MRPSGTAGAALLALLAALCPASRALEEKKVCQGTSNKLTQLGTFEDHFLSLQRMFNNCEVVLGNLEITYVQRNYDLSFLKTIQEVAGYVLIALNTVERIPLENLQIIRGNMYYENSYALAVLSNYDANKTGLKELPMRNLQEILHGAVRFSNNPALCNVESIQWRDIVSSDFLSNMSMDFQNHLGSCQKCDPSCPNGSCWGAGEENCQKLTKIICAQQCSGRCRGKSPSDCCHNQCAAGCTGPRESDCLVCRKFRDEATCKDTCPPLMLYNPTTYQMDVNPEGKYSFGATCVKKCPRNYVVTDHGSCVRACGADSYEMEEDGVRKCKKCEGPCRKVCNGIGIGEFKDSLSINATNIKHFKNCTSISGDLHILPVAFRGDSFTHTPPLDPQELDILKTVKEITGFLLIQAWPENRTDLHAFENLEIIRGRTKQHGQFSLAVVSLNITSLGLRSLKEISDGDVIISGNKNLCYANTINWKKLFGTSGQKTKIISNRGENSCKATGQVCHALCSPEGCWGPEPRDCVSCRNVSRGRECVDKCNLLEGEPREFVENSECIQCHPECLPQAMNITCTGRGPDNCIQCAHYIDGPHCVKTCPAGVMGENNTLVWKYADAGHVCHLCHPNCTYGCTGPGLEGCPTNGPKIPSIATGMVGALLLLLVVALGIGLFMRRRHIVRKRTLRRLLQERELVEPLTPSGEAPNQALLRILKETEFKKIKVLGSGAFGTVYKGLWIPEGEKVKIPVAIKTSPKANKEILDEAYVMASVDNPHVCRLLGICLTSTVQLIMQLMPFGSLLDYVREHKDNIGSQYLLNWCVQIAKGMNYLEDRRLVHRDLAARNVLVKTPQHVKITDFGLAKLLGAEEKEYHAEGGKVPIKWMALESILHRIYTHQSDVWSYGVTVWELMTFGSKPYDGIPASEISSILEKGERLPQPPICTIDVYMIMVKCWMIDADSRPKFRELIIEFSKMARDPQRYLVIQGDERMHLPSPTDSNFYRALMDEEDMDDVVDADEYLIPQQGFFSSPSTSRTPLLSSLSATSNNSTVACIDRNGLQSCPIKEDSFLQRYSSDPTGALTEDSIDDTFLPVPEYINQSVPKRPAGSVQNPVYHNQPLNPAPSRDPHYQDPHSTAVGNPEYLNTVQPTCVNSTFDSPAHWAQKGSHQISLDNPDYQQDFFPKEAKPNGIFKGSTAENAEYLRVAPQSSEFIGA
Method in brief: (§1)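 Cells seeded at 2000/well and exposed 72 h to compound at 1000 to 0.2 nM (0.1% DMSO). Viability read by CellTiter-Glo luminescence; IC50 from four-parameter nonlinear regression of signal vs. log concentration.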

Ba/F3-L858R/T790M/C797S = Ba/F3-L858R/T790M/C797S (Homo sapiens, UniProt P00533, T790M/C797S/L858R, cells depend on it); test: Ba/F3-L858R/T790M/C797S cell proliferation assay (CellTiter Glo, 72 h); assay type: cell-based; conditions: CTG, numeric values, read-out: BaF3 L858R/T790M/C797S IC50
Ba/F3-L858R/T790M/C797S, sequence (P00533 whole entry T790M/C797S/L858R): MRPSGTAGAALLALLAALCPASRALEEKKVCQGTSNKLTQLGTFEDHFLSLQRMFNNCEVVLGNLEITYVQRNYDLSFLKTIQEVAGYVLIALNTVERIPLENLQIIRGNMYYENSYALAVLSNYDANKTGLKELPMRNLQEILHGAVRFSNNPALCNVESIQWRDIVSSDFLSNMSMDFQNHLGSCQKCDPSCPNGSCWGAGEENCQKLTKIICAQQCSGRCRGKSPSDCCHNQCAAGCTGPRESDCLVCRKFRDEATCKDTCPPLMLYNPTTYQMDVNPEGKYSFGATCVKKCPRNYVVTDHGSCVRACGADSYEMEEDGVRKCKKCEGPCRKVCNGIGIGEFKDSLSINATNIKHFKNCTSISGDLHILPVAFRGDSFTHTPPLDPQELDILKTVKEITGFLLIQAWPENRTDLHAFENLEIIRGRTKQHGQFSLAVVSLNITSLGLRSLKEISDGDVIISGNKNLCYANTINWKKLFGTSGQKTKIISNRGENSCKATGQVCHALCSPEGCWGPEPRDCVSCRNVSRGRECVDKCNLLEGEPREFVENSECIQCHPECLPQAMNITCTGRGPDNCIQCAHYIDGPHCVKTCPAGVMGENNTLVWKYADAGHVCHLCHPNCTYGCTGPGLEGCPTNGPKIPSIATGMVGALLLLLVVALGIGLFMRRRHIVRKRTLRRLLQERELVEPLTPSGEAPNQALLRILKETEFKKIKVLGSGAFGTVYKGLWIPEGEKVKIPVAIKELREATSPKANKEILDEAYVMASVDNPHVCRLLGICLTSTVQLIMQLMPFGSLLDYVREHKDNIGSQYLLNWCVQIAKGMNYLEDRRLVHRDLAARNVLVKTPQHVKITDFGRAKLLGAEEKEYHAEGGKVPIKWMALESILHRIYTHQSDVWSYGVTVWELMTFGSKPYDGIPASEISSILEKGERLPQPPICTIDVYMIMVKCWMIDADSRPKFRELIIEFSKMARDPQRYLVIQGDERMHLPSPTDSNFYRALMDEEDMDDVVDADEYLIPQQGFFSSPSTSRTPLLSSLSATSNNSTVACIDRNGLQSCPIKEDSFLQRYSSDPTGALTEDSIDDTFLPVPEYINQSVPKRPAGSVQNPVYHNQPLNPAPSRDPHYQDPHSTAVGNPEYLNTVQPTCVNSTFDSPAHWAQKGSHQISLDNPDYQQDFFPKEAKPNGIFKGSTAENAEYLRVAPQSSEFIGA
Method in brief: as §1

- Instrinsic clearance of liver microsomal protein, CLint [1]: 4 μL/min/mg proteins
- GI50 (Ba/F3-Δ19del/T790M/C797S): 2.1 nM
- GI50 (Ba/F3-L858R/T790M/C797S): 2.1 nM
SMILES: COc1cc(N2CCC(N3CCN(C)CC3)CC2)c(-c2cnn(C)c2)cc1Nc1ncc(Cl)c(Nc2ccc3nccnc3c2P(C)(C)=O)n1 [Compound 1, (6-((5-Chloro-2-((2-methoxy-5-(1-methyl-1hydro-pyrazol-4-yl)-4-(4-(4-methylpiperazine-1-yl)piperidin-1-yl)phenyl)amino)pyrimidin-4-yl)amino)quinoxalin-5-yl)dimethylphosphine oxide]
